Residues, ends and D or L forms follow the SMILES beside them.
Biological target: T1, human MC1 receptor (Homo sapiens, UniProt Q01726)
T1 construct: expressed in transfected cells; host or cells: Chinese Hamster Ovary (CHO) cells
Test: Human MC1 receptor cAMP HTRF functional assay (MC1R stimulation)
Type: cell-based
Settings: not given
Method: Human MC1 Receptor Using cAMP HTRF Functional Assay:
Twenty seven (27) compounds were tested for agonist activity at the human MC1 receptor using cAMP HTRF (homogeneous time-resolved fluorescence) assays at eight (8) concentrations and in duplicate.
On the day of experimentation, compounds were tested at several concentrations in duplicate wells (n=2) to obtain a dose-response curve and an estimated EC50 value. Values obtained for the reference compound were compared to historical values obtained from the same receptor and used to validate the experimental session. For replicate determinations, the maximum variability tolerated in the test was of +/−20% around the average of the replicates.
Assay: After cultivation Chinese Hamster Ovary (CHO) cells were detached and incubated at a specific cell density in assay buffer. At this stage the CHO cells express the human MC1R at their surface. Agonist compounds were added at determined concentration and incubated for 30 min. Cells were lysed in detection buffer in order to extract cAMP. The amount of cAMP within the cells correlates with GPCR-activity, meaning that in this assay it correlates with MC1R-activity. cAMP was detected in a competitive HTRF assay for binding to an anti-cAMP-antibody.

T1 sequence (Q01726 whole entry): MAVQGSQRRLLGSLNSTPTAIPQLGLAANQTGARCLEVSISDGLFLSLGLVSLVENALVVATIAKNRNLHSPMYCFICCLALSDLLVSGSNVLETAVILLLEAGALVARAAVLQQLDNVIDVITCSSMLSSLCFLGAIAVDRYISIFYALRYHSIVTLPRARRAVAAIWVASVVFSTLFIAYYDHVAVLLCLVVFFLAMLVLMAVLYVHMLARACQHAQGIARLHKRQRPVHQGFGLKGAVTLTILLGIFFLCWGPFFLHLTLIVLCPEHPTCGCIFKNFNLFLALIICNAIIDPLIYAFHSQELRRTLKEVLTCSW

SMILES | EC50 [nM]
CCCN(CCC)C(=O)[C@H](Cc1c[nH]c2ccccc12)NC(=O)[C@H](CCCNC(=N)N)NC(=O)[C@@H](Cc1ccccc1)NC(=O)[C@@H](Cc1c[nH]cn1)NC(=O)CNC(=O)c1ccccc1 [Compound R1, Bz-Gly-D-His-D-Phe-Arg-Trp-N(Propyl)2 *2TFA, reference compound] (HELM PEPTIDE1{[O=C(c1ccccc1)[*:2]].G.[dH].[dF].R.W.[CCCN(CCC)[*:1]]}$$$$V2.0) | 36
CCCN(CCC)C(=O)[C@H](Cc1c[nH]c2ccccc12)NC(=O)[C@H](CCCNC(=N)N)NC(=O)[C@H](Cc1ccccc1)NC(=O)[C@H](Cc1c[nH]cn1)NC(=O)CNC(=O)c1ccccc1 [Compound R2, Bz-Gly-His-Phe-Arg-Trp-N(Propyl)2 *2TFA, reference compound] (HELM PEPTIDE1{[O=C(c1ccccc1)[*:2]].G.H.F.R.W.[CCCN(CCC)[*:1]]}$$$$V2.0) | 51.4
CCCN(CCC)C(=O)[C@H](Cc1c[nH]c2ccccc12)NC(=O)[C@@H](CCCNC(=N)N)NC(=O)[C@@H](Cc1ccccc1)NC(=O)[C@H](Cc1c[nH]cn1)NC(=O)CNC(=O)c1ccccc1 [Compound R3, Bz-Gly-His-D-Phe-D-Arg-Trp-N(Propyl)2 *2TFA, reference compound] (HELM PEPTIDE1{[O=C(c1ccccc1)[*:2]].G.H.[dF].[dR].W.[CCCN(CCC)[*:1]]}$$$$V2.0) | 70.1

Same assay, conditions: agonist activity; CHO cells expressing human MC1R; 30 min incubation; 8 concentrations in duplicate; read-out: EC50 [nM], MC1R stimulation assay

SMILES | EC50 [nM]
N=C(N)NCCC[C@H](NC(=O)[C@@H](Cc1ccccc1)NC(=O)[C@H](Cc1c[nH]cn1)NC(=O)CNC(=O)c1ccccc1)C(=O)N[C@@H](Cc1c[nH]c2ccccc12)C(N)=O [(I-a), Bz-Gly-His-D-Phe-Arg-Trp-NH2 *2TFA] (HELM PEPTIDE1{[O=C(c1ccccc1)[*:2]].G.H.[dF].R.W.[am]}$$$$V2.0) | 0.041
N=C(N)NCCC[C@H](NC(=O)[C@@H](Cc1ccccc1)NC(=O)[C@H](Cc1c[nH]cn1)NC(=O)CNC(=O)c1ccccc1)C(=O)N[C@H](Cc1ccc2ccccc2c1)C(N)=O [(I-b), Bz-Gly-His-D-Phe-Arg-D-2-NaphAla-NH2 *2TFA] (HELM PEPTIDE1{[O=C(c1ccccc1)[*:2]].G.H.[dF].R.[O=C([C@@H](Cc1ccc2ccccc2c1)N[*:1])[*:2]].[am]}$$$$V2.0) | 0.25
N=C(N)NCCC[C@H](NC(=O)[C@@H](Cc1ccccc1)NC(=O)[C@H](Cc1c[nH]cn1)NC(=O)CNC(=O)c1ccccc1)C(=O)N[C@@H](Cc1ccc2ccccc2c1)C(N)=O [(I-c), Bz-Gly-His-D-Phe-Arg-L-2-NaphAla-NH2 *2TFA] (HELM PEPTIDE1{[O=C(c1ccccc1)[*:2]].G.H.[dF].R.[O=C([C@H](Cc1ccc2ccccc2c1)N[*:1])[*:2]].[am]}$$$$V2.0) | 0.11
CCCN(CCC)C(=O)[C@@H](Cc1c[nH]c2ccccc12)NC(=O)[C@H](CCCNC(=N)N)NC(=O)[C@@H](Cc1ccccc1)NC(=O)[C@H](Cc1c[nH]cn1)NC(=O)CNC(=O)c1ccccc1 [(I-d), Bz-Gly-His-D-Phe-Arg-D-Trp-N(Propyl)2 *2TFA] (HELM PEPTIDE1{[O=C(c1ccccc1)[*:2]].G.H.[dF].R.[dW].[CCCN(CCC)[*:1]]}$$$$V2.0) | 0.42
CCCN(CCC)C(=O)[C@H](Cc1c[nH]c2ccccc12)NC(=O)[C@H](CCCNC(=N)N)NC(=O)[C@@H](Cc1ccccc1)NC(=O)[C@H](Cc1c[nH]cn1)NC(=O)CNC(=O)c1ccccc1 [(I-e), Bz-Gly-His-D-Phe-Arg-Trp-N(Propyl)2 *2TFA] (HELM PEPTIDE1{[O=C(c1ccccc1)[*:2]].G.H.[dF].R.W.[CCCN(CCC)[*:1]]}$$$$V2.0) | 0.88
CCCCCCCCNC(=O)[C@H](Cc1c[nH]c2ccccc12)NC(=O)[C@H](CCCNC(=N)N)NC(=O)[C@@H](Cc1ccccc1)NC(=O)[C@H](Cc1c[nH]cn1)NC(=O)CNC(=O)c1ccccc1 [(I-f), Bz-Gly-His-D-Phe-Arg-Trp-NHOctyl *2TFA] (HELM PEPTIDE1{[O=C(c1ccccc1)[*:2]].G.H.[dF].R.W.[CCCCCCCCN[*:1]]}$$$$V2.0) | 1.06
N=C(N)NCCC[C@H](NC(=O)[C@@H](Cc1ccccc1)NC(=O)[C@H](Cc1c[nH]cn1)NC(=O)CNC(=O)c1ccccc1)C(=O)N[C@H](Cc1ccccc1)C(N)=O [(I-g), Bz-Gly-His-D-Phe-Arg-D-Phe-NH2 *2TFA] (HELM PEPTIDE1{[O=C(c1ccccc1)[*:2]].G.H.[dF].R.[dF].[am]}$$$$V2.0) | 1.79
NCC[C@H](NC(=O)[C@@H](Cc1ccccc1)NC(=O)[C@H](Cc1c[nH]cn1)NC(=O)CNC(=O)c1ccccc1)C(=O)N[C@@H](Cc1c[nH]c2ccccc12)C(N)=O [(I-h), Bz-Gly-His-D-Phe-Dab-Trp-NH2 *2TFA] (HELM PEPTIDE1{[O=C(c1ccccc1)[*:2]].G.H.[dF].[Dab].W.[am]}$$$$V2.0) | 7.51
N=C(N)NCCC[C@H](NC(=O)[C@@H](Cc1ccccc1)NC(=O)[C@H](Cc1cnc[nH]1)NC(=O)CNC(=O)c1ccccc1)C(=O)N(CCc1c[nH]c2ccccc12)CC(N)=O [(I-i), Bz-Gly-His-D-Phe-Arg-(N-IndEt)Gly-NH2 *2TFA] (HELM PEPTIDE1{[O=C(c1ccccc1)[*:2]].G.H.[dF].R.[O=C(CN(CCc1c[nH]c2ccccc12)[*:1])[*:2]].[am]}$$$$V2.0) | 4.4
N=C(N)NCCC[C@H](NC(=O)[C@@H](Cc1ccccc1)NC(=O)[C@H](Cc1c[nH]cn1)NC(=O)CNC(=O)c1ccccc1)C(=O)NCCc1c[nH]c2ccccc12 [Compound R4, Bz-Gly-His-D-Phe-Arg-Tryptamide *2TFA, reference compound] (HELM PEPTIDE1{[O=C(c1ccccc1)[*:2]].G.H.[dF].R.[c1ccc2c(CCN[*:1])c[nH]c2c1]}$$$$V2.0) | 42.9

Tested on: Skin samples (from abdominal plastic surgery)
Test: Ex-vivo skin pigmentation trial (melanin amount, Fontana-Masson stain)
Type: cell-based
Settings: 4 μl/200 μM of active applied topically daily; melanin amount at day 6; % increase versus untreated
Method: Skin samples (from abdominal plastic surgery) have been cut in pieces of approx. 8×3 mm (Øx thickness) and were cultured up to day 6 in an air-liquid interface in a perforated ring of stainless steel in contact with a culture medium (modified Williams'E medium), the culture medium has been renewed every three days. Six skin specimens have been used for each treatment. Each test sample (4 μl/200 μM of active) has been applied topically on top of each piece after gentle cleaning of the surface with a cotton pad followed by covering with a 6 ø mm delivery membrane, which procedure has been repeated daily. After 6 days of incubation, the melanin amount was assessed on twelve skin sections for each treatment by staining using a modified Fontana-Masson stain. The amount of melanin present in each slide has been evaluated by estimating the intensity and the distribution of grey tone: 8-bit grey-scale images for each treatment have been captured at the microscope. Then the colour space of the images have been transformed from RGB into L*a*b* images and each pixel of the picture has been evaluated according to its L* values. The obtained results have been transformed in ranks of L* and then normalized on the ratio between the selected area and the area of the slide. The result is indicated as % increase versus untreated at day 6.

SMILES | skin pigmentation increase versus untreated
N=C(N)NCCC[C@H](NC(=O)[C@@H](Cc1ccccc1)NC(=O)[C@H](Cc1c[nH]cn1)NC(=O)CNC(=O)c1ccccc1)C(=O)N[C@@H](Cc1c[nH]c2ccccc12)C(N)=O [(I-a), Bz-Gly-His-D-Phe-Arg-Trp-NH2 *2TFA] (HELM PEPTIDE1{[O=C(c1ccccc1)[*:2]].G.H.[dF].R.W.[am]}$$$$V2.0) | +18%
CCCN(CCC)C(=O)[C@@H](Cc1c[nH]c2ccccc12)NC(=O)[C@H](CCCNC(=N)N)NC(=O)[C@@H](Cc1ccccc1)NC(=O)[C@H](Cc1c[nH]cn1)NC(=O)CNC(=O)c1ccccc1 [(I-d), Bz-Gly-His-D-Phe-Arg-D-Trp-N(Propyl)2 *2TFA] (HELM PEPTIDE1{[O=C(c1ccccc1)[*:2]].G.H.[dF].R.[dW].[CCCN(CCC)[*:1]]}$$$$V2.0) | +21%

Source: US11591367B2, “Melanocortin-1-receptor agonists” (DSM IP ASSETS B.V., priority 2016, dated 2023)
